# Test results as given in patent publication US9062041B2 (Bayer Intellectual Property GmbH, priority 2011, dated 2015).
# What was measured:
# Assay type in all cases: cell-based
# human PGD receptor = biological target: T1, human PGD receptor (Homo sapiens, UniProt Q13258); assay: cAMP antagonism test on the human prostaglandin D receptor (HTRF cAMP detection); conditions: selectivity towards hDP, IC50 measured by cAMP antagonism test
# T1 sequence (Q13258 1-359): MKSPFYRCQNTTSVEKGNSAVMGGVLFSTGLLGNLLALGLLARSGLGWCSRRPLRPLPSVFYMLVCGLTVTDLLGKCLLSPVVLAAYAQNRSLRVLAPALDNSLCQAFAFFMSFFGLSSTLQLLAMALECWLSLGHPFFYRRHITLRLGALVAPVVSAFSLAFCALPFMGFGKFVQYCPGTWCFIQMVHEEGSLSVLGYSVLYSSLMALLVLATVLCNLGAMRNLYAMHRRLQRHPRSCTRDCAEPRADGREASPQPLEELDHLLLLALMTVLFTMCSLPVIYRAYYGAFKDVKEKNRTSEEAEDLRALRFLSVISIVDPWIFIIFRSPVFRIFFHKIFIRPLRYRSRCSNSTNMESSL
# In short: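 HTRF competition read-out (665/620 nm ratio ×10000), where higher FRET means less cAMP, i.e. antagonism. Compounds (0.8 nM–16.5 μM) were preincubated 20 min at RT with cells and cAMP-d2, PGD2 (3× solution, 6 nM) in IBMX-containing PBS added for 30 min at RT, then cells lysed 20 min.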
# [1] = biological target: EP4 subtype of the human PGE2 receptor (Homo sapiens, UniProt P35408); assay: cAMP antagonism test on the human EP4 receptor (HTRF cAMP detection); conditions: selectivity towards hEP4, IC50 measured by cAMP antagonism test
# In short: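 Competitive HTRF cAMP read-out (cAMP-d2 vs Eu-cryptate anti-cAMP antibody, 665/620 nm ratio) on lysed human EP4 cells. Compound (0.8 nM–16.5 μM) applied 20 min at RT before 60 min PGE2 challenge (3× solution 0.3 nM, IBMX present); 20 min lysis precedes reading.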
# [2] = biological target: EP2 subtype of the human PGE2 receptor (Homo sapiens, UniProt P43116); assay: cAMP antagonism test on the human EP2 receptor (HTRF cAMP detection); conditions: hEP2 receptor, read-out: Antagonism hEP2 IC50
# In short: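 Read-out is a competitive HTRF for cAMP: lysate cAMP displaces cAMP-d2 from Eu cryptate-labelled antibody, and antagonism raises the 665/620 nm ratio. Compound (0.8 nM–16.5 μM) added to EP2 cells 20 min at RT before 60 min PGE2 challenge (3× stock 1.5 nM) with IBMX, followed by 20 min lysis.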
# EP4 subtype of the human PGE2 receptor, sequence (P35408 whole entry): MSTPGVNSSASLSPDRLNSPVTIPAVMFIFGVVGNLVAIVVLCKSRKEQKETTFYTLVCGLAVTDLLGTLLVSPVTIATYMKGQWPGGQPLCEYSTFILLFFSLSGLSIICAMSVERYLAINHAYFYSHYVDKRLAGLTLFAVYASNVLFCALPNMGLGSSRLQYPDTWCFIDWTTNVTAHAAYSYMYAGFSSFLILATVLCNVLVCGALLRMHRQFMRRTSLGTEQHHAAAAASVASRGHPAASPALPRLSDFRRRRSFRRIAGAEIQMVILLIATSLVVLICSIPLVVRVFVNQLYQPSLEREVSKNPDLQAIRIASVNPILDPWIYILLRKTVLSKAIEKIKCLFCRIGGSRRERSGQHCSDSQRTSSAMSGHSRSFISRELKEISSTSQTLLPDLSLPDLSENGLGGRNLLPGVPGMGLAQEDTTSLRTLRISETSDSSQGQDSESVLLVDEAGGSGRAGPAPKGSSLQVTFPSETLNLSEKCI
# EP2 subtype of the human PGE2 receptor, sequence (P43116 whole entry): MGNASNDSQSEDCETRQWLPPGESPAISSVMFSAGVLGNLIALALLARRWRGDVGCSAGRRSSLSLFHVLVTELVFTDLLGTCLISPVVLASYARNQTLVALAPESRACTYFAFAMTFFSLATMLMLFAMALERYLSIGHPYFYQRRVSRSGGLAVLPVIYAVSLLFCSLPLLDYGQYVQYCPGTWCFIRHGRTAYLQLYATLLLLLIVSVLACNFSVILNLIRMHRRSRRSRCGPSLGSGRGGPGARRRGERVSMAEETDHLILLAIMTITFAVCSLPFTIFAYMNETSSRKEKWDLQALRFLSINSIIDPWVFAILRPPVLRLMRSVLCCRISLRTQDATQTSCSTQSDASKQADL
Selectivity hEP2/hDP (human PGD receptor),Selectivity hEP2/hEP4 [1],IC50 [2],SMILES
xxx (xxx > 100),xxx (xxx > 100),39 nM,"COCCNC(=O)c1ccc2nn(CC3CN(C(=O)c4ccc(SC(F)(F)F)cc4)C3)cc2c1OC [Example 215, 4-methoxy-N-(2-methoxyethyl)-2-[(1-{4-[(trifluoromethyl)sulphanyl]benzoyl}azetidin-3-yl)methyl]-2H-indazol-5-carboxamide]"
xx (xx: 10-100),xx (xx: 10-100),345 nM,"Cc1c(C(=O)NCC(F)(F)F)ccc2nn(CC3CCN(C(=O)c4cnc(-c5ccccc5)s4)CC3)cc12 [Example 298, 4-methyl-2-({1-[(2-phenylthiazol-5-yl)carbonyl]piperidin-4-yl}methyl)-N-(2,2,2-trifluoroethyl)-2H-indazol-5-carboxamide]"
xxx (xxx > 100),xxx (xxx > 100),7.36 nM,"COCCNC(=O)c1ccc2nn(CC3CCN(C(=O)c4ccc(Oc5ccc(Cl)cn5)cc4)CC3)cc2c1C [Example 357, 2-[(1-{4-[(5-chloropyridin-2-yl)oxy]benzoyl}piperidin-4-yl)methyl]-N-(2-methoxyethyl)-4-methyl-2H-indazol-5-carboxamide]"
xxx (xxx > 100),xxx (xxx > 100),7.54 nM,"COCCNC(=O)c1ccc2nn(CC3CCN(C(=O)c4ccc(SC(F)(F)F)cc4)CC3)cc2c1OC [Example 269, 4-methoxy-N-(2-methoxyethyl)-2-[(1-{4-[(trifluoromethyl)sulphanyl]benzoyl}-piperidin-4-yl)methyl]-2H-indazol-5-carboxamide]"
xxx (xxx > 100),xxx (xxx > 100),31.7 nM,"Cc1cc2nn(CC3CCN(C(=O)c4ccc(Oc5ccc(F)cc5)cc4)CC3)cc2cc1C(=O)NCCN1CCOCC1 [Example 78, 2-({1-[4-(4-fluoro-phenoxy)benzoyl]-piperidin-4-yl}-methyl)-6-methyl-N-(2-morpholinoethyl)-2H-indazol-5-carboxamide]"
xxx (xxx > 100),xxx (xxx > 100),5.39 nM,"COCCNC(=O)c1ccc2nn(CC3CCN(C(=O)c4ccc(Oc5cccc(C(F)(F)F)c5)cc4)CC3)cc2c1C [Example 355, N-(2-methoxyethyl)-4-methyl-2-[(1-{4-[3-(trifluoromethyl)phenoxy]benzoyl}-piperidin-4-yl)methyl]-2H-indazol-5-carboxamide]"
xxx (xxx > 100),xxx (xxx > 100),8.14 nM,"COCCNC(=O)c1ccc2nn(CC3CCN(C(=O)c4ccc(S(F)(F)(F)(F)F)cc4)CC3)cc2c1C [Example 11, N-(2-methoxyethyl)-4-methyl-2-({1-[4-(pentafluoro-λ^6-sulphanyl)benzoyl]piperidin-4-yl}methyl)-2H-indazol-5-carboxamide]"
xxx (xxx > 100),xxx (xxx > 100),56.1 nM,"Cc1c(C(=O)NCCC#N)ccc2nn(CC3CCN(C(=O)c4ccc(Cl)cc4)CC3)cc12 [Example 400, 2-{[1-(4-chlorobenzoyl)piperidin-4-yl]methyl}-N-(2-cyanoethyl)-4-methyl-2H-indazol-5-carboxamide]"
xxx (xxx > 100),xxx (xxx > 100),86.1 nM,"COCCNC(=O)c1ccc2nn(CC3CN(C(=O)c4ccc(Br)cc4)C3)cc2c1OC [Example 216, 2-{[1-(4-bromobenzoyl)azetidin-3-yl]methyl}-4-methoxy-N-(2-methoxyethyl)-2H-indazol-5-carboxamide]"
xx (xx: 10-100),xx (xx: 10-100),513 nM,"Cc1cc2nn(CC3CCN(C(=O)c4cccc(S(F)(F)(F)(F)F)c4)CC3)cc2cc1C(=O)NCCN1CCOCC1 [Example 81, 6-methyl-N-(2-morpholinoethyl)-2-({1-[3-(pentafluoro-λ^6-sulphanyl)benzoyl]-piperidin-4-yl}-methyl)-2H-indazol-5-carboxamide]"
xxx (xxx > 100),xxx (xxx > 100),53.9 nM,"Cc1cc2nn(CC3CCN(C(=O)c4ccc(S(F)(F)(F)(F)F)cc4)CC3)cc2cc1C(=O)NCCN1CCOCC1 [Example 77, 6-methyl-N-(2-morpholinoethyl)-2-({1-[4-(pentafluoro-λ^6-sulphanyl)benzoyl]piperidin-4-yl}methyl)-2H-indazol-5-carboxamide]"
xxx (xxx > 100),xxx (xxx > 100),81 nM,"COc1c(C(=O)NCCN2CCOCC2)ccc2nn(CC3CCN(C(=O)c4ccc(Cl)cc4)CC3)cc12 [Example 261, 2-{[1-(4-chlorobenzoyl)piperidin-4-yl]methyl}-4-methoxy-N-(2-morpholinoethyl)-2H-indazol-5-carboxamide]"
xx (xx: 10-100),xx (xx: 10-100),1440 nM,"Cc1c(C(=O)NCCN2CCOCC2)ccc2nn(CC3CCN(C(=O)c4ccc(C(F)(F)F)cc4)CC3)cc12 [Example 63, 4-methyl-N-(2-morpholinoethyl)-2-({1-[4-(trifluoromethyl)benzoyl]piperidin-4-yl}methyl)-2H-indazol-5-carboxamide]"
xxx (xxx > 100),xxx (xxx > 100),68.3 nM,"COCCNC(=O)c1cc2cn(CC3CN(C(=O)c4ccc(Cl)cc4)C3)nc2cc1C [Example 178, 2-{[1-(4-chlorobenzoyl)azetidin-3-yl]methyl}-N-(2-methoxyethyl)-6-methyl-2H-indazol-5-carboxamide]"
xxx (xxx > 100),xxx (xxx > 100),7.15 nM,"COCCNC(=O)c1ccc2nn(CC3CCN(C(=O)c4cnc(-c5ccccc5)o4)CC3)cc2c1C [Example 339, N-(2-methoxyethyl)-4-methyl-2-({1-[(2-phenyloxazol-5-yl)carbonyl]piperidin-4-yl}methyl)-2H-indazol-5-carboxamide]"
xxx (xxx > 100),xxx (xxx > 100),20.2 nM,"Cc1c(C(=O)NCC(C)C)ccc2nn(CC3CCN(C(=O)c4ccc(Oc5ccc(C(F)(F)F)cc5)cc4)CC3)cc12 [Example 404, N-isobutyl-4-methyl-2-[(1-{4-[4-(trifluoromethyl)phenoxy]benzoyl}piperidin-4-yl)methyl]-2H-indazol-5-carboxamide]"
xxx (xxx > 100),xxx (xxx > 100),11.5 nM,"COCCNC(=O)c1ccc2nn(CC3CCN(C(=O)c4ccc(OC(F)F)cc4F)CC3)cc2c1C [Example 40, 2-({1-[4-(difluoro-methoxy)-2-fluoro-benzoyl]piperidin-4-yl}methyl)-N-(2-methoxyethyl)-4-methyl-2H-indazol-5-carboxamide]"
xxx (xxx > 100),xxx (xxx > 100),55.3 nM,"COCCNC(=O)c1ccc2nn(CC3CCN(C(=O)c4ccc(C(C)(C)C#N)cc4)CC3)cc2c1C [Example 341, 2-({1-[4-(1-cyano-1-methylethyl)benzoyl]piperidin-4-yl}methyl)-N-(2-methoxy-ethyl)-4-methyl-2H-indazol-5-carboxamide]"
xxx (xxx > 100),xxx (xxx > 100),9.67 nM,"COCCNC(=O)c1ccc2nn(CC3CCN(C(=O)c4ccc(OC(F)(F)F)cc4)CC3)cc2c1C [Example 55, N-(2-methoxyethyl)-4-methyl-2-({1-[4-(trifluoromethoxy)benzoyl]piperidin-4-yl}methyl)-2H-indazol-5-carboxamide]"
xx (xx: 10-100),xx (xx: 10-100),315 nM,"Cc1ccc(-c2ccc(C(=O)N3CCC(Cn4cc5c(C)c(C(=O)NCC(F)(F)F)ccc5n4)CC3)cc2)cn1 [Example 319, 4-methyl-2-({1-[4-(6-methylpyridin-3-yl)benzoyl]piperidin-4-yl}methyl)-N-(2,2,2-trifluoroethyl)-2H-indazol-5-carboxamide]"
xxx (xxx > 100),xxx (xxx > 100),18.1 nM,"COCCNC(=O)c1ccc2nn(CC3CCN(C(=O)c4cnc(-c5ccccc5)s4)CC3)cc2c1C [Example 337, N-(2-methoxyethyl)-4-methyl-2-({1-[(2-phenylthiazol-5-yl)carbonyl]piperidin-4-yl}methyl)-2H-indazol-5-carboxamide]"
